Experiments:
CYP2B6 = molecular target: T1, CYP2B6 (Homo sapiens, UniProt P20813); assay: biochemical
T1 sequence (P20813 1-491): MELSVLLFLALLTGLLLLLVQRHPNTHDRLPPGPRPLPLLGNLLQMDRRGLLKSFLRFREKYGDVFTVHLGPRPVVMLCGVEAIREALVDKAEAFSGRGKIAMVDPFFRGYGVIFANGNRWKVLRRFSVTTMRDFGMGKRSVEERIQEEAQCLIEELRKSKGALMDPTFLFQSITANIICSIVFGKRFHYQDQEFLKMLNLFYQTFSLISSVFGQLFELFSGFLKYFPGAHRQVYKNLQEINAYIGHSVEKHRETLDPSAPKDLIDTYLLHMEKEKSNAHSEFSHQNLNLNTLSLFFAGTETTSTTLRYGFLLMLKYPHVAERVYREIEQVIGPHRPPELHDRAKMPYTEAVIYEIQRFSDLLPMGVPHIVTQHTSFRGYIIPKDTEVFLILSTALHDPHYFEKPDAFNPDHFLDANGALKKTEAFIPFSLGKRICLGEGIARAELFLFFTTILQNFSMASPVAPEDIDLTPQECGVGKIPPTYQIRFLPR

[1] = Brain homogenate binding by equilibrium dialysis; format: in vitro ADME, mouse; details: for % Recovery / % Unbound: mouse brain, 2 μM, 37° C.
Procedure: Samples of spiked plasma and blank buffer (Dulbecco's phosphate-buffered saline, DPBS) and spiked brain homogenate and blank DPBS added to opposing sides of a dialysis membrane were collected from triplicate equilibrium dialysis chambers prior to (t=0) and following 1, 2, 4 and 6 hours of incubation at 37° C. […] The LC-MS/MS method(s) for analytes (Compound I-19, Compound A and Compound B) was cross-qualified for the analysis of the DPBS samples.
A secondary stock solution of 200 μM (74.2 ug/mL) will be prepared in DMSO. This secondary stock solution will then be diluted 100-fold to 2 μM ([…]) with male CD-1 mouse plasma and brain homogenate (1:2 v/v brain:Dulbecco's phosphate buffered saline, pH 7-7.2) or buffer (DPBS).
To 2.97 mL aliquots of thawed mouse plasma or brain homogenate warmed to 37° C., 30 ul aliquots of the secondary stock solution of the test compound will be added for final concentrations of 2 μM (0.742 ug/mL). An appropriate volume of warmed buffer (DPBS) will also be spiked with the test compound at a concentration of 2 μM ([…]). Triplicate aliquots (50 μL) of each spiked plasma, brain homogenate and buffer solution will be collected prior to dialysis into labeled 1.5 mL polypropylene tubes and then stored at approximately −80° C. until bioanalysis.
Equilibrium dialysis will be performed in a 96-well Teflon dialysis unit (HTDialysis, Gales Ferry, CT). Each well of the unit consists of two chambers separated by a vertically aligned dialysis membrane (regenerated cellulose) with a molecular weight cut-off of 12-14 KDa. The equilibrium dialysis membranes will first be presoaked in deionized water for 30 min, then soaked in 20% ethanol for 20 min, followed by rinsing twice with deionized water.
The equilibrium dialysis apparatus will be assembled according to the manufacturer's directions. One chamber of each well will be immediately filled with 150 μL of blank buffer (to prevent membrane dehydration). Aliquots (150 μL) of spiked plasma, spiked brain homogenate and spiked buffer will then be added to the opposing chamber in each well. Three wells per time point per matrix will be used. The top of the plate will be sealed with an adhesive sealing film to prevent evaporation and maintain constant pH during incubation.
The dialysis apparatus will be incubated at 37° C. in an orbital shaker/incubator (Lab-Line Enviro Shaker) set at 75 rpm.
Following 1, 2, 4 and 6 hours of incubation, samples from each plasma, brain homogenate and buffer compartment will be collected and the sample volume will be documented.

CYP2D6 = CYP2D6 (Homo sapiens, UniProt P10635)
Chain of CYP2D6 (P10635 whole entry): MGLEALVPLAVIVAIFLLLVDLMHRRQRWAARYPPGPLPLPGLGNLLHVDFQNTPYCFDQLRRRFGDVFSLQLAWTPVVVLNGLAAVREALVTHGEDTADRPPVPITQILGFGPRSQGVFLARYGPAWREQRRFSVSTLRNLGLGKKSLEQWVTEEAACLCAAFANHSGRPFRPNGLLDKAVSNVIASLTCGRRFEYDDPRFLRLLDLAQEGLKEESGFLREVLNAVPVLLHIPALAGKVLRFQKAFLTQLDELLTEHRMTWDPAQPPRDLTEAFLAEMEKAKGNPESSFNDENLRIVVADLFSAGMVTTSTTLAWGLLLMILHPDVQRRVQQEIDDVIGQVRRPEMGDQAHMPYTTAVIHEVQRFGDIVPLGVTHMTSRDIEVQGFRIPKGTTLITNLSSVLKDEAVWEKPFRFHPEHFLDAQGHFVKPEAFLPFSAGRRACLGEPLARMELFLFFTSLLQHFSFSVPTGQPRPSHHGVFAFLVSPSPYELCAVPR

| SMILES | IC50 (CYP2B6) [µM] | % recovery, brain homogenate ([1]; 6 hours of dialysis) [%] | % Recovery ([1]; dialysis time 1 h) [%] | % Unbound ([1]; dialysis time 1 h) [%] | % Recovery ([1]; dialysis time 2 h) [%] | % Unbound ([1]; dialysis time 2 h) [%] | % Recovery ([1]; dialysis time 4 h) [%] | % Unbound ([1]; dialysis time 4 h) [%] | % Recovery ([1]; dialysis time 6 h) [%] | % Unbound ([1]; dialysis time 6 h) [%] | Inhibition at Highest Test Article Concentration (CYP2D6; 2D6, Dextromethorphan, at 50 μM) [at 50 μM %] | IC50 (CYP2D6; microsomes) [µM] |
| --- | --- | --- | --- | --- | --- | --- | --- | --- | --- | --- | --- | --- |
| OC1(c2ccc(Cl)cc2)c2ccccc2C2=NCCN21 (stereo not drawn) [Compound A, 5-(4-chlorophenyl)-2,3-dihydroimidazo[1,2-b]isoindol-5-ol, reference compound] | 0.092 | – | – | – | – | – | – | – | – | – | – | – |
| Clc1ccc(C2(OCC3OCCO3)c3ccccc3C3=NCCN32)cc1 (stereo not drawn) [Compound I-19] | – | 51.3±2.58 | 87.8 ± 2.40 | 1.33 | 83.1 ± 1.58 | 1.64 ± 0.181 | 65.1 ± 4.05 | 2.46 ± 0.183 | 51.3 ± 2.58 | 3.31 ± 0.385 | 84.3 | 8.7 |
